Assay results: publication PMC7680422 (European journal of medicinal chemistry, 2020)
“Also recorded” adds a separate entry of the source.

Tests used:
Swiss Webster mice = experiment: Locomotor activity studies in mice; settings: i.p., doses up to 30 mg/kg, distance travelled
[1] = Phase I metabolic stability in mouse liver microsomes; assay type: in vitro ADME
[2] = Phase I metabolic stability in rat liver microsomes; assay type: in vitro ADME
[3] = test system: methamphetamine self-administration; settings: short access and long access groups; cited from earlier work
[4] = biological target: dopamine transporter (DAT) (Rattus norvegicus, UniProt P23977); experiment: DAT binding assay, [3H]WIN35,428, rat striatum membranes
Chain of dopamine transporter (DAT) (P23977 whole entry): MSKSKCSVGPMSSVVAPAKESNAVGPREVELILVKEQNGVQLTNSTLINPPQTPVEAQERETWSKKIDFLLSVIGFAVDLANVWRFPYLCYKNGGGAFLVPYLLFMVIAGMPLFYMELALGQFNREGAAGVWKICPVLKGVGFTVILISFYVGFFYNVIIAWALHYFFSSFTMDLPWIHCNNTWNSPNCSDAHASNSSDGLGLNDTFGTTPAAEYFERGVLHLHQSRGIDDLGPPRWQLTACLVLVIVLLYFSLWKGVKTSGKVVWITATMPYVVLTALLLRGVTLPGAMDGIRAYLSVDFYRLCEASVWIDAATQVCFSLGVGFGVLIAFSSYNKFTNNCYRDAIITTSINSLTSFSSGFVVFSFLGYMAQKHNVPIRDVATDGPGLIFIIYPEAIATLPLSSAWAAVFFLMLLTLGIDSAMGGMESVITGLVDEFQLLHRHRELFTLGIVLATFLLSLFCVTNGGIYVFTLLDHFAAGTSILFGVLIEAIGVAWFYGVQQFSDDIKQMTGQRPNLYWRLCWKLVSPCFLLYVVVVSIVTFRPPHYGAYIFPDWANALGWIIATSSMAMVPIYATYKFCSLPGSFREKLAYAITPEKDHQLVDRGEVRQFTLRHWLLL

## [O-][S+](CCNC1CCN(Cc2ccc(F)cc2)CC1)C(c1ccc(F)cc1)c1ccc(F)cc1 (stereo not shown) [Compound 7, N-(2-((Bis(4-fluorophenyl)methyl)sulfinyl)ethyl)-1-(4-fluorobenzyl)piperidin-4-amine]
Swiss Webster mice
  stimulation of ambulatory activity (in words): only minimal stimulation of ambulatory activity
[1]
  metabolic stability / susceptibility to phase I metabolism (in words): susceptibility to phase I metabolism; also recorded: significantly less stable
[2]
  metabolic stability / susceptibility to phase I metabolism (in words): relatively metabolically stable

## O=C(c1ccccc1)N1CCC(NCCSC(c2ccc(F)cc2)c2ccc(F)cc2)CC1 [Compound 19a, (4-((2-((Bis(4-fluorophenyl)methyl)thio)ethyl)amino)piperidin-1-yl)(phenyl)methanone]
[2]
  metabolic stability / susceptibility to phase I metabolism (in words): less stable; also recorded: susceptibility to phase I metabolism

## [O-][S+](CCNC1CCN(CC(O)Cc2ccccc2)CC1)C(c1ccc(F)cc1)c1ccc(F)cc1 (stereo not shown) [Compound 11, 1-(4-((2-((Bis(4-fluorophenyl)methyl)sulfinyl)ethyl)amino)piperidin-1-yl)-3-phenylpropan-2-ol]
[2]
  metabolic stability / susceptibility to phase I metabolism (in words): less stable; also recorded: susceptibility to phase I metabolism

## Fc1ccc(CN2CCC(NCCSC(c3ccc(F)cc3)c3ccc(F)cc3)CC2)cc1 [Compound 6b, N-(2-((Bis(4-fluorophenyl)methyl)thio)ethyl)-1-(4-fluorobenzyl)piperidin-4-amine]
[2]
  metabolic stability / susceptibility to phase I metabolism (in words): relatively metabolically stable

## OC(CNC1CCN(CCSC(c2ccc(F)cc2)c2ccc(F)cc2)CC1)Cc1ccccc1 (stereo not shown) [Compound 16, 1-((1-(2-((Bis(4-fluorophenyl)methyl)thio)ethyl)piperidin-4-yl)amino)-3-phenylpropan-2-ol]
[2]
  metabolic stability / susceptibility to phase I metabolism (in words): relatively metabolically stable

## CC(O)CN1CCN(CC[S+]([O-])C(c2ccc(F)cc2)c2ccc(F)cc2)CC1 (stereo not shown) [Compound 1]
[3]
  attenuation of methamphetamine self-administration (in words): effective in attenuating this behavior in both groups

## O=C(c1ccc(F)cc1)N1CCC(NCCSC(c2ccc(F)cc2)c2ccc(F)cc2)CC1 [Compound 19b, (4-((2-((Bis(4-fluorophenyl)methyl)thio)ethyl)amino)piperidin-1-yl)(4-fluorophenyl)methanone]
[2]
  metabolic stability / susceptibility to phase I metabolism (in words): less stable; also recorded: susceptibility to phase I metabolism

## OC(Cc1ccccc1)CN1CCC(NCCSC(c2ccc(F)cc2)c2ccc(F)cc2)CC1 (stereo not shown) [Compound 10, 1-(4-((2-((Bis(4-fluorophenyl)methyl)thio)ethyl)amino)piperidin-1-yl)-3-phenylpropan-2-ol]
[2]
  metabolic stability / susceptibility to phase I metabolism (in words): relatively metabolically stable

## COC(=O)[C@H]1[C@@H](OC(=O)c2ccccc2)C[C@@H]2CC[C@H]1N2C [cocaine, reference compound]
Swiss Webster mice
  stimulation of ambulatory activity (in words): large, significant increase in ambulatory activity

## O=C(c1ccc(F)cc1F)N1CCC(NCCSC(c2ccc(F)cc2)c2ccc(F)cc2)CC1 [Compound 33, (4-((2-((Bis(4-fluorophenyl)methyl)thio)ethyl)amino)piperidin-1-yl)(2,4-difluorophenyl)methanone]
Swiss Webster mice
  stimulation of ambulatory activity (in words): only minimal stimulation of ambulatory activity
[1]
  metabolic stability / susceptibility to phase I metabolism (in words): susceptibility to phase I metabolism; also recorded: significantly less stable

## CC(O)CN1CCN(CCSC(c2ccc(F)cc2)c2ccc(F)cc2)CC1 (stereo not shown) [Compound 3a]
[3]
  attenuation of methamphetamine self-administration (in words): effective only in the long access group

## O=C(c1ccc(F)cc1)N1CCC(NCC[S+]([O-])C(c2ccc(F)cc2)c2ccc(F)cc2)CC1 (stereo not shown) [Compound 21b, (4-((2-((Bis(4-fluorophenyl)methyl)sulfinyl)ethyl)amino)piperidin-1-yl)(4-fluorophenyl)methanone]
Swiss Webster mice
  stimulation of ambulatory activity (in words): only minimal stimulation of ambulatory activity
[1]
  metabolic stability / susceptibility to phase I metabolism (in words): susceptibility to phase I metabolism; also recorded: significantly less stable
[2]
  metabolic stability / susceptibility to phase I metabolism (in words): relatively metabolically stable

## O=C(c1ccccc1)N1CCC(NCC[S+]([O-])C(c2ccc(F)cc2)c2ccc(F)cc2)CC1 (stereo not shown) [Compound 21a, (4-((2-((Bis(4-fluorophenyl)methyl)sulfinyl)ethyl)amino)piperidin-1-yl)(phenyl)methanone]
[4]
  DAT over SERT selectivity: ~100 fold

## [O-][S+](CCN1CCN(CC(O)Cc2ccccc2)CC1)C(c1ccc(F)cc1)c1ccc(F)cc1 (stereo not shown) [Compound 2]
[3]
  attenuation of methamphetamine self-administration (in words): not effective in either rodent population
